ChEMBL document CHEMBL4825659, “Terpenoids from Chinese Liverworts Scapania spp” (J Nat Prod, 2021)
Calls of active or inactive are those of the source. The calls are words filed in the database; no cut-off is given here.

Columns and labels:
[1] = biological target: NAD(P)H dehydrogenase [quinone] 1 (Mus musculus) (UniProt Q64669); test: Induction of quinone reductase activity in mouse Hepa1c1c7 cells at 50 uM incubated for 24 hrs by MTT based assay relative to control; assay type: cell-based
[2] = Cytotoxicity against mouse Hepa1c1c7 cells incubated for 24 hrs by MTT based assay; assay type: functional, cell-based; details: Hepa-1c1c7, 24 h

Sequence of NAD(P)H dehydrogenase [quinone] 1 (Mus musculus) (Q64669 whole entry): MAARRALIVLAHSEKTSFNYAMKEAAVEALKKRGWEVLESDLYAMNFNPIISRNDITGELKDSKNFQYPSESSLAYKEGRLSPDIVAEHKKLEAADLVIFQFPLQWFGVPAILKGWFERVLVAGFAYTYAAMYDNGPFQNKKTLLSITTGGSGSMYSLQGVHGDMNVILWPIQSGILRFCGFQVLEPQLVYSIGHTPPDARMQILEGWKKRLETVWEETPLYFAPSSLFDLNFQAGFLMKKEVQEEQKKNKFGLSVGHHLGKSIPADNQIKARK

| Activity [1] | Activity ([1]; filed as activator) | SMILES | IC50 [2] |
| --- | --- | --- | --- |
| inactive | – | CC(=O)O[C@@H]1C[C@H](C)[C@@]2(C)C[C@@]3(c4ccoc4)OC[C@]14C2(CC[C@@H]1O[C@@]14C)O3 | > 50 µM |
| – | Active | CC(=O)O[C@@H]1C[C@H](C)[C@@]2(C)C[C@@]3(C4=CC(=O)OC4O)OC[C@]14C2(CC[C@@H]1O[C@@]14C)O3 (some centres undefined) | > 50 µM |
| inactive | – | C[C@H]1C[C@H]2O[C@@]3(C)[C@@H](O)CCC45O[C@@](C6=CC(=O)OC6O)(C[C@]14C)OC[C@@]253 (some centres undefined) | > 50 µM |
| – | Active | CO[C@]1(C2=CC(=O)OC2O)C[C@]2(C)[C@@H](C)C[C@@H](OC(C)=O)[C@]3(COC(C)=O)C2(CC[C@@H]2O[C@@]23C)O1 (some centres undefined) | > 50 µM |
| inactive | – | C[C@H]1C[C@H]2O[C@@]3(C)[C@@H](O)CCC45O[C@@](c6ccoc6)(C[C@]14C)OC[C@@]253 | > 50 µM |
| – | Active | CC(=O)O[C@@H]1C[C@H](C)[C@@]2(C)C[C@@]3(C4=CC(O)OC4=O)OC[C@]14C2(CC[C@@H]1O[C@@]14C)O3 (some centres undefined) | > 50 µM |
| inactive | – | CC1(C)CC[C@@H](O)[C@]2(C)[C@@H]1C(=O)C[C@@]13C[C@H]4[C@@H](C(=O)[C@H]12)[C@]4(C)C3 | > 50 µM |
